In article PMC7486940, “Pre-symptomatic Caspase-1 inhibitor delays cognitive decline in a mouse model of Alzheimer disease and aging” (Nature Communications, 2020):

Experiments:
[1] = tested on: alpha-synuclein; parameters: method as in PMID 27482083; conditions: in vitro; cited from earlier work
[2] = female, C57BL/6J, mouse, in vivo, ip, 50 mg/kg, 0.25 h
Experimental: Plasma, whole brain and CSF concentrations of VX-765 and its active metabolite, VRT-043198, were determined by LC-MS/MS at Paraza Pharma (Montreal, QC, Canada). Fourteen C57BL/6J female mice received a single IP dose of 50 mg · kg^−1 VX-765 and 2 mice per time point were euthanized at 0.25, 0.5, 1, 3, 6, 8 and 24 h post-injection. Mice were isoflurane anesthetized to collect CSF and perform a cardiac puncture followed by whole body perfusion with PBS. Plasma samples were extracted 1:1 in spiking solution and internal standard solution containing 0.1 μM glyburide in acetonitrile. Brain and CSF samples were extracted 1:1 in spiking solution and internal standard solution containing 0.2 μM labetalol in 50:50 methanol:acetonitrile. Samples were centrifuged at 4000 × g for 10 min at 4 °C, the plasma supernatant diluted 1:1 and the brain and CSF supernatant diluted 1:2 in H2O, and 5 μl was injected into a Quantis LC-MS/MS system for analysis.

[3] = tested on: IL-1β; experiment: IL-1β and IL-18 levels (PCR, western blot, ELISA); format: in vivo, mouse
Experimental: (§1) VX-765 (Adooq Bioscience, Irvine, CA, USA) was dissolved 5 mg • ml^−1 in 20% cremophor in dH2O[60] (Sigma-Aldrich, ON, Canada) and administered IPWT and J20 mice received three injections per week of either 50 mg • kg^−1 VX-765 or 20% cremophor vehicle for 4 weeks between 2 and 3 months of age. Mice were longitudinally followed starting 4 weeks after the last injection [4-week washout (WO)], then every other month at 12- and 20-week WO (6 and 8 months of age, respectively). Intermediate 8- and 16-week WO periods were also looked at with a smaller number of mice. After each WO period, animals were randomly chosen, independent of behavioural performance, for sacrifice and assigned to either histological or biochemical analysis (Fig. 2a).
Twenty to sixty micrograms of protein or 16 μl of precipitated protein from culture medium were separated on SDS-PAGE or 4–12% NuPAGE Bis-Tris gels (Invitrogen, Carlsbad, CA, USA) with MES buffer (Invitrogen) and transferred onto PVDF membranes (Bio-Rad) according to the manufacturer’s instructions. Membranes were probed with the following antibodies: 1:1000 mouse anti-Aβ1-16 (6E10) (BioLegend, CA, USA), 1:2000 rabbit anti-APP C-terminus (A8717) (Sigma-Aldrich), 1:1000 rabbit anti-neprilysin (Nep, Abcam, ON, Canada), 1:500 rabbit anti-insulin degrading enzyme (IDE, Abcam), 1:3000 rabbit anti-GFAP (Dako), 1:1000 rabbit anti-IL-1β (Abcam), 1:1000 rat anti-Caspase-1 (clone 4B4.2.1, kindly provided by Genentech, San Francisco, CA, USA) and 1:1000 mouse anti-β-actin (Sigma-Aldrich). […] Signals were visualized with the ImageQuant LAS 4000 imaging system and densitometric analyses were performed with Image Gauge analysis software 3.0 (Fujifilm USA, NY, USA). Protein extracts from three independent mice in each group were run together on each blot. Protein levels were normalized to β-actin and expressed as a percentage relative to the vehicle-treated WT group, except for APP which was compared to the vehicle-treated J20 group. Representative full blots are shown in the Source data file.
ELISA samples were prepared in RIPA described above. RIPA-insoluble pellets were further extracted in 70% formic acid (FA) in dH2O. FA was evaporated in a speed vacuum, and the resulting pellet was solubilized in 200 mM Tris-HCl, pH 7.5. IL-1β and Aβ levels (which include Aβ38, Aβ40 and Aβ42) were measured using Meso Scale Discovery ELISA kits (Rockville, MD, USA). Standards and samples were prepared according to the manufacturer’s protocols and run in duplicate.
Real-time PCR experiments were performed with SYBR Green Taq Mastermix (Quanta BioSciences, MD, USA) in a real-time cycler ABI 7500 Fast Block (Applied Biosystems, CA, USA). Primer sequences are described in the supplementary material. […]

[4] = tested on: J20 mice; experiment: open field; format: in vivo, mouse; conditions: 50 mg/kg IP 3x/week for 1 month, 4- to 20-week WO
Experimental: as §1
(§2) Open-field and novel object recognition (NOR) were measured at all WO periods. The Barnes maze was assessed at 12- and 20-week WO. Open field: Mice were placed in an open-field chamber, composed of a plexiglass box with no ceiling and white floor, and allowed to explore for 5 min. NOR: Mice were pre-exposed to two identical objects in the open-field chamber for 5 min. Two hours after pre-exposure, mice were placed back into the chamber and exposed to one familiar object and one novel object for 5 min (test phase). Mice were exposed to a specific object only once across multiple test sessions. Barnes maze: Learning acquisition (days 1–4)—each mouse was trained to find the target and enter the escape box within 180 s. Four trials per day, ~15 min apart, were performed for 4 consecutive days. Probe (day 5)—a single, 90 s trial was performed on each mouse to measure primary latency and number of errors to reach the blocked target. Target hole location was changed between the two separate test sessions. Behavioural scoring was blinded to mouse genotype and treatment.

[5] = tested on: WT mice; experiment: open field; format: in vivo, mouse; conditions: 50 mg/kg IP 3x/week for 1 month
Experimental: as §1, §2

[6] = tested on: CD4 T-cell; parameters: method as in PMID 24356306; conditions: HIV; cited from earlier work

CCO[C@@H]1OC(=O)C[C@@H]1NC(=O)[C@@H]1CCCN1C(=O)[C@@H](NC(=O)c1ccc(N)c(Cl)c1)C(C)(C)C [VX-765, (S)-1-((S)-2-{[1-(4-amino-3-chloro-phenyl)-methanoyl]-amino}-3,3-dimethyl-butanoyl)-pyrrolidine-2-carboxylic acid ((2R,3S)-2-ethoxy-5-oxo-tetrahydro-furan-3-yl)-amide]
alpha-synuclein toxicity [1]: protect against alpha-synuclein toxicity | CSF concentration relative to respective in vitro Casp1 IC50 [2]: 100 fold | brain concentration relative to respective in vitro Casp1 IC50 [2]: 50 fold | plasma concentration relative to respective in vitro Casp1 IC50 [2]: 100 fold | active IL-1β levels (western blot) ([3]; J20 cortex, 20-week WO): normalized with VX-765 treatment at 20-week WO | Il-1β mRNA ([3]; J20 hippocampus, 16-week WO): normalized with VX-765 treatment at 16-week WO | cortical IL-1β levels (ELISA) ([3]; cortex, any WO): did not differ between groups at any WO | total protein IL-1β levels (ELISA) ([3]; hippocampus, 4-, 12-, or 20-week WO): did not differ between treatment groups | open field hyperactivity (distance travelled, quadrant entries) [4]: attenuated hyperactivity in J20 mice only at 4-week WO | open field activity ([5]; WT, all WO periods): had no effect on WT mice at any WO period | open field locomotor activity, time moving, thigmotaxis ([5]; between vehicle and VX-765 treatment): no differences in locomotor activity, time moving or thigmotaxis | inflammation, CD4 T-cell death and pyroptosis [6]: reduce inflammation by suppressing CD4 T-cell death and pyroptosis in HIV
